According to US7576071B2, “Antithrombotic compound” (sanofi-aventis, priority 2004, dated 2009):
Like-named read-outs stand apart in the source and are kept apart here.

Key:
[1] = tested on: human platelets (platelet rich plasma), ADP-induced aggregation; experiment: In vitro test for inhibition of human platelet aggregation induced by ADP; assay type: cell-based; conditions: Platelet
Source text: I.a. In vitro Test for Inhibition of Human Platelet Aggregation Induced by ADP
Addition of adenosine diphosphate (ADP) to human platelet rich plasma (PRP) in vitro induces platelet aggregation. This aggregation can be assessed by measuring the optical density (OD) of the PRP. The in vitro test described here was used to determine the inhibitory activity of a test compound on the ADP-induced aggregation of human platelets. A micro plate reader is used to measure the activity of several compounds simultaneously.
(§1) An alternative vehicle is 0.9% NaCl in MQ H2O. The compound solution (either in MQ H2O or 0.9% NaCl in MQ H2O) is further diluted in 0.9% NaCl in MQ H2O.
Free-flowing blood (at least 100 mL) is taken from a healthy volunteer and collected in 0.1 volume 3.8% sodium citrate. 2H2O in distilled H2O (w/v). The final concentration is 0.38% sodium citrate.
The citrated blood is centrifuged at 1,600 N/kg (160 g) at RT. After 15 min, centrifugation is discontinued with the brake turned off and the supernatant (=PRP) is collected. • 2. ADP (Kordia/Chrono-par # 384). Before use, a solution of 50 μM in 0.9% NaCl is prepared. Equipment • 1. Sysmex blood cell counter model KX-21. • 2. Labsystems iEMS reader MF with a 620 nm filter, an orbital shaker set at 1,000 rpm and a constant temperature of 37° C. Absorption is measured with the Labsystems iEMS program. • 3. Blood collection system 600 mL with needle, art P4203 (NPBI). • 4. 96 wells flat bottom micro plates (Greiner Labortechnik). Procedure
The platelets in the supernatant (PRP) are counted using a Sysmex blood cell counter and the supernatant is diluted with PPP to obtain a PRP containing 400,000±50,000 plt/μL. PRP should stabilize at RT for at least 20 min but not longer than 3 h.
150 μL PRP is pipetted into a well of the micro plate. 30 μL test compound in a range of concentrations (7 concentrations per compound) or vehicle is added and the micro plate is placed in the Labsystems iEMS reader MF at 37° C. The optical density (OD620) is then measured at 620 nm. After shaking for 2 min in the reader (1,000 rpm), the OD is measured for the second time. This is to verify the stability of the platelets (absence of spontaneous platelet aggregation). Then, 20 μL of 50 μM ADP solution is added and the OD is kinetically measured every min for 14 min at 620 nm (FIG. 1). Between two measurements, the plate is shaking for 40 seconds at 1,000 rpm. Each test compound is investigated in at least 2 experiments using PRP from different volunteers.
The mean OD at each compound concentration (including vehicle) is calculated at t=0 min and t=10 min. The percentage inhibition at each concentration is calculated using the formula: […]
The IC50 of the test compound is the concentration of the test compound at which the ADP-induced platelet aggregation is reduced by 50%. For this, the percentage inhibition values are plotted against compound concentration. Then, IC50, nH (Hill slope) and efficacy of the test compound is calculated using Graphpad Prism 3.0 (with variable slope).
Reference: Salmon, D. M. (1996) Thrombosis Research 84, 213-216.

[2] = tested on: washed human platelets, TRAP-induced aggregation; experiment: In vitro test for inhibition of human platelet aggregation induced by TRAP; assay type: cell-based; conditions: Platelet
Source text: I.b. In vitro Test for Inhibition of Human Platelet Aggregation Induced by TRAP
Introduction: Addition of trombin receptor agonist peptide (TRAP) to washed human platelets (WPL) in vitro induces platelet aggregation. This aggregation can be determined by measuring the optical density of the WPL. The in vitro test described here is used to analyze the activity of a test compound to inhibit TRAP-induced aggregation of human platelets. A micro plate reader is used to measure the activity of several compounds simultaneously.
as §1
Free-flowing blood (at least 100 mL) is taken from a healthy volunteer and collected in 0.1 volume 3.8% sodium citrate. 2H2O in MQ H2O (w/v). The final concentration is 0.38% sodium citrate. The citrated blood is centrifuged at 1,600 N/kg (160 g) in Hettich Rotanta/AP centrifuge (750 rpm) at RT. After 15 min, centrifugation is discontinued with the brake turned off and the supernatant (=PRP) is collected. • 2. Washed platelets (WPL):
After adding freshly made 1 μL PGI2 solution per ml PRP, the suspension is centrifuged at 13,500 N/kg (1,350 g) for 10 min in a Hettich Rotanta/AP centrifuge (i.e., 2,800 rpm) at RT. After gentle resuspension of the pellet in the same volume of fresh Watson buffer containing 5 ng/mL PGI2, the suspension is centrifuged at 1,350 g (2,800 rpm) for 10 min at RT again. The final platelet pellet is resuspended in Watson buffer to give approx. 400,000±50,000 platelets/[…]. • 3. Watson buffer:
134 mM NaCl, 2.9 mM KCl, 12 mM NaHCO3, 0.34 mM Na2HPO4.2H2O, 1 mM MgCl2.6H2O, 5 mM Glucose and 5 mM HEPES in MQ H2O. The pH is adjusted to 7.4 with 1 M NaOH. • 4. Prostaglandin I2 (Sigma, P6188 powder):
The PGI2 stock solution of 1 mg/mL in 1 M KOH is stored in aliquots of 100 μL at −20° C. Immediately before use, a solution of 5 μg/mL in ice-cold 0.9% NaCl in MQ H2O is prepared. • 5. Human Fibrinogen (Kordia/ERL, art nr: FIB 2 powder):
0.5 g fibrinogen powder is dissolved in 50 mL MQ H2O under vacuum. This stock solution is stored in aliquots of 1 mL at −20° C. Before use, a solution of 0.5 mg/mL in saline is prepared.
Before use, a solution of 50 μM TRAP in 0.9% NaCl in MQ H2O is prepared. For each test, a fresh solution is made.
• 1. Sysmex cell counter model KX-21 • 2. Labsystems iEMS reader MF with a 405 nm filter, an orbital shaker set at 1,000 rpm and a constant temperature of 37° C. Absorptions are measured with the Labsystems iEMS program. • 3. Blood collection system 600 mL with needle, art nr P4203 (NPBI) • 4. 96 wells micro plates (Greiner Labortechnik) flat-bottom
Procedure: The WPL concentration is counted in a Sysmex blood cell counter and the suspension is diluted with Watson buffer to obtain a concentration of 400,000±50,000 plt/μL. Before use, WPL is allowed to stabilize at room temperature for at least 20 min but not longer than 3-4 hours.
TRAP-induced aggregation: 150 μL WPL is pipetted into a well of a micro plate. 15 μL test compound or vehicle and 15 μL fibrinogen solution is added and the micro plate is placed in the micro plate reader at 37° C. Then, the optical density (OD) is measured at 405 nm and after shaking for 2 min in the reader, the OD405 is measured again to verify the stability of the platelets (absence of spontaneous platelet aggregation). 20 μL of 50 μM TRAP is added and the OD405 is kinetically measured every min for 14 min at 405 nm. Between two measurements, the plate is shaking for 40 seconds at 1,000 rpm (FIG. 1). For determination of the IC50 of a test compound, each test compound is investigated in at least 2 experiments using WPL from different volunteers.
Evaluation of response: The mean OD of each concentration (including vehicle) is calculated at t=0 min and t=10 min. The percentage inhibition at each concentration is calculated using the formula: […]

[3] = 5 μM ADP, human PRP, mean of n experiments, entries marked b measured with a Chronolog aggregometer, others with micro plate reader, read-out: Inhibition of ADP-induced (5 μM) human platelet aggregation (IC50), mean
[4] = 5 μM TRAP, washed human platelets, mean of n experiments, entries marked b measured with a Chronolog aggregometer, others with micro plate reader, read-out: Inhibition of TRAP (5 μM)-induced human platelet aggregation (IC50), mean

Compound | IC50 [1, 3] [nM] | IC50 [2, 4] [nM] | IC50 ([1]; Homo sapiens, read-out: IC50, inhibition of human platelet aggregation induced by 5 μM ADP (reference compound)) [nM] | IC50 ([2]; Homo sapiens, read-out: IC50, inhibition of human platelet aggregation induced by 5 μM TRAP (reference compound)) [nM]
O=C(O)C[C@H](NC(=O)[C@@H]1CCCN(C(=O)CCC2CCNCC2)C1)C(=O)O [Compound VI, {N-3-[4-piperidinepropionyl]-(R)-(−)-nipecotyl}-L-aspartate] | 22600 | 6290 | – | –
CCCCS(=O)(=O)N[C@@H](Cc1ccc(OCCCCC2CCNCC2)cc1)C(=O)O [tirofiban, reference compound] | – | – | 30 to 60 | 30 to 60
CC(C)(C)OC(=O)COCCOCCOCCOCCNC(=O)[C@H](Cc1ccccc1)NC(=O)[C@H](CC(=O)O)NC(=O)[C@@H]1CCCN(C(=O)CCC2CCNCC2)C1 [IX, tert-Butyl N-{[N-3-(4-piperidinepropionyl)-(R)-(−)-nipecotyl]-L-aspartyl-L-phenylalanyl}-15-aza-3,6,9,12-tetraoxa-pentadecanoate] | 1180 | – | – | –
CC(C)(C)OC(=O)COCCOCCOCCOCCNC(=O)[C@H](Cc1ccccc1)NC(=O)[C@H](CC(=O)O)NC(=O)CCC(=O)Nc1ccc(C(=N)N)cc1 [Compound IV, tert-Butyl N-{(4-benzamidino)-succinamyl}-L-aspartyl-L-phenylalanyl-15-aza-3,6,9,12-tetraoxa-pentadecanoate] | 350 | 120 | – | –
O=C(O)CCNC(=O)[C@@H]1CCCN(C(=O)CCC2CCNCC2)C1 [XX, reference compound] | 310 | 380 | – | –
CC(C)(C)OC(=O)COCCOCCOCCOCCNC(=O)[C@H](CC(=O)O)NC(=O)CCC(=O)Nc1ccc(C(=N)N)cc1 [III, tert-Butyl N-{(4-benzamidino)-succinamyl}-L-aspartyl-15-aza-3,6,9,12-tetraoxa-pentadecanoate] | 380 | 250 | – | –
CC(C)(C)OC(=O)COCCOCCOCCOCCNC(=O)[C@H](CC(=O)O)NC(=O)[C@@H]1CCCN(C(=O)CCC2CCNCC2)C1 [Compound VII, tert-Butyl N-{[N-3-(4-piperidinepropionyl)-(R)-(−)-nipecotyl]-L-aspartyl}-15-aza-3,6,9,12-tetraoxa-pentadecanoate] | 380 | 270 | – | –
CC(C)(C)OC(=O)COCCOCCOCCOCCNC(=O)[C@H](Cc1ccccc1)NC(=O)[C@H](CC(=O)O)NC(=O)CCNC(=O)c1ccc(C(=N)N)cc1 [Compound I, tert-Butyl({N-(4-amidinobenzoyl)-β-alanyl}-L-aspartyl-L-phenylalanyl)-15-aza-3,6,9,12-tetraoxa-pentadecanoate] | 610 | 220 | – | –
N=C(N)c1ccc(NC(=O)CCC(=O)N[C@@H](CC(=O)O)C(=O)O)cc1 [XVIII, reference compound] | 2010 | 1190 | – | –
